Results published in PubChem BioAssay (NCI).
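In this assay, cells in 96-well plates receive the compound at five concentrations for 48 hours. Endpoints are linearly interpolated between the surrounding concentrations. Definition used: TGI = concentration required for complete inhibition of growth.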

How the values were obtained:
Assay in all cases: DTP human tumour cell line panel, 48 h
SF-539 CNS = tested on: SF-539 CNS
NCI-H460 lung = tested on: NCI-H460 lung
NCI/ADR-RES ovarian = tested on: NCI/ADR-RES ovarian
KM12 colon = tested on: KM12 colon
RXF 393 renal = tested on: RXF 393 renal
DU-145 prostate = tested on: DU-145 prostate
NCI-H226 lung = tested on: NCI-H226 lung
ACHN renal = tested on: ACHN renal
M14 melanoma = tested on: M14 melanoma
HCT-15 colon = tested on: HCT-15 colon

SMILES | TGI (SF-539 CNS) | TGI (NCI-H460 lung) | TGI (NCI/ADR-RES ovarian) | TGI (KM12 colon) | TGI (RXF 393 renal) | TGI (DU-145 prostate) | TGI (NCI-H226 lung) | TGI (ACHN renal) | TGI (M14 melanoma) | TGI (HCT-15 colon)
Cc1ccc(S(=O)(=O)OCCC2CN(C(=O)OCc3ccccc3)C(C)(C)O2)cc1 (stereo not given) | > 100 µM | 14.3 µM | 15.7 µM | 12.4 µM | > 100 µM | > 100 µM | 4.35 µM | 64.9 µM | 38.1 µM | 32.5 µM
CC(C)[C@H](C)/C=C/[C@@H](C)C1CC[C@H]2[C@@]34C=C[C@]5(C[C@@H](O)CC[C@]5(C)[C@H]3CC[C@]12C)OO4 (stereo not given in full) | > 100 µM | > 100 µM | 50.2 µM | > 100 µM | > 100 µM | 56 µM | 49.9 µM | > 100 µM | > 100 µM | > 100 µM
Oc1ccc(Cl)cc1-c1cc(-c2ccccc2)nc(=S)[nH]1 | > 100 µM | > 100 µM | > 100 µM | > 100 µM | > 100 µM | > 100 µM | > 100 µM | > 100 µM | > 100 µM | > 100 µM
C=C(CN(CC)CC)C1(c2ccccc2)CC2(CCCC2)C(=O)O1 (stereo not given) | > 100 µM | > 100 µM | 84.4 µM | > 100 µM | > 100 µM | > 100 µM | > 100 µM | > 100 µM | > 100 µM | > 100 µM
C=C(Br)C[N+]12CN3CN(CN(C3)C1)C2 | > 100 µM | > 100 µM | > 100 µM | > 100 µM | > 100 µM | > 100 µM | > 100 µM | > 100 µM | > 100 µM | > 100 µM
O=c1[nH]n(CCc2ccccc2CCl)c2ccc([N+](=O)[O-])cc12 | > 100 µM | > 100 µM | > 100 µM | > 100 µM | > 100 µM | > 100 µM | > 100 µM | > 100 µM | > 100 µM | > 100 µM
Oc1cccc2c(Br)ccnc12 | > 49.1 µM | 42 µM | 12.7 µM | 21.1 µM | 32.4 µM | 39.5 µM | 29.8 µM | 27.5 µM | 16.3 µM | 24.2 µM
Cn1c2ccccc2n2c3ncccc3c(=O)cc12 | > 100 µM | > 100 µM | > 100 µM | > 100 µM | > 100 µM | > 100 µM | > 100 µM | > 100 µM | > 100 µM | > 100 µM
Clc1ccc(-c2nn3c(COc4cccc(OCc5nnc6sc(-c7ccc(Cl)cc7)nn56)c4)nnc3s2)cc1 | 49.5 µM | > 100 µM | > 100 µM | > 100 µM | 77.6 µM | 74.3 µM | > 100 µM | 68.4 µM | 75.9 µM | > 100 µM
COc1cccc(NC(=O)CC(=O)n2nc(-c3ccccc3)c(N=Nc3ccc(Cl)cc3)c2-c2ccccc2)c1 | > 74.8 µM | > 92.5 µM | 52.6 µM | > 81.9 µM | 75.9 µM | > 100 µM | 73.8 µM | > 100 µM | 42.3 µM | > 100 µM
NC1CCCCC1NCCNC1CCCCC1N (stereo not given) | > 100 µM | > 100 µM | > 100 µM | > 100 µM | > 100 µM | > 100 µM | > 100 µM | > 100 µM | > 100 µM | > 100 µM
COC(=O)[C@@H](NS(=O)(=O)CC12CCC(CC1)C2(C)C)C(C)(C)C | > 100 µM | > 100 µM | > 100 µM | > 100 µM | > 100 µM | > 100 µM | > 100 µM | > 100 µM | > 100 µM | > 100 µM
Nc1ccc2c(=O)cc(-c3ccc(Br)s3)[nH]c2n1 | 6.02 µM | > 100 µM | > 26.9 µM | > 100 µM | > 100 µM | > 100 µM | 9.11 µM | > 100 µM | 45.3 µM | > 100 µM
O=C1C=CC2(O[C@H](C3CCCCC3)[C@@H](C3CCCCC3)O2)C(SC(=O)c2ccccc2)C1 (stereo not given in full) | 11.6 µM | 17.6 µM | 13.1 µM | 18.3 µM | 2.49 µM | 10.4 µM | 1.62 µM | 6.43 µM | 7.9 µM | 9.47 µM
CC(C)OP(=O)(OC(C)C)C(C(C)C)N(C)C(N)=NC#N (stereo not given) | > 100 µM | > 100 µM | > 100 µM | > 100 µM | > 100 µM | > 100 µM | > 100 µM | > 100 µM | > 100 µM | > 100 µM
